Experimental findings from patent US10207006B2, “Oligosaccharide conjugates and methods of use” (priority 2013, dated 2019) are described below.

Experiment [1] relates to anti-M monoclonal antibody BM40. The format is binding.
Experiment [2] has as its system anti-A and anti-M rabbit hyperimmunised and absorbed monospecific sera. The format is binding.

Consider `C[C@H]1O[C@H](O[C@@H]2[C@@H](O[C@@H]3[C@H](O)[C@@H](O[C@H]4[C@@H](O)[C@H](NC=O)[C@@H](C)O[C@@H]4O)O[C@H](C)[C@H]3NC=O)O[C@H](C)[C@@H](NC=O)[C@@H]2O)[C@@H](O)[C@@H](O)[C@@H]1NC=O` [TSM antigen, 4,6-dideoxy-4-formamido-α-D-mannopyranosyl-(1-2)-4,6-dideoxy-4-formamido-α-D-mannopyranosyl-(1-3)-4,6-dideoxy-4-formamido-α-D-mannopyranosyl-(1-2)-4,6-dideoxy-4-formamido-α-D-mannopyranose], for which the “inhibition of BM40 mAb binding by competing liquid phase antigen” value in experiment [1] was “inhibit the binding to a greater extent than the equivalent concentration of Y. enterocolitica O:9 OPS and to a similar degree as the B. abortus S99 OPS”. Further, the “inhibition of anti-M vs anti-A monospecific sera binding” value in experiment [2] was “preferential inhibition of the anti-M sera”.

Consider `CO[C@H]1OC(C)[C@@H](NC=O)C(O)C1O[C@H]1OC(C)[C@@H](NC=O)C(O[C@H]2OC(C)[C@@H](NC=O)C(O)C2O[C@H](C=O)OC(C)[C@H](C=O)NC=O)C1O` (stereo partly drawn) [oxiTSM], for which the “inhibition of BM40 mAb binding by competing liquid phase antigen” value in experiment [1] is recorded as “maintained its antibody interaction”.
